Measured values from patent US12492188B2, “1H-benzo[D]imidazole derivatives as TLR9 inhibitors for the treatment of fibrosis” (BRISTOL-MYERS SQUIBB COMPANY, priority 2020, dated 2025).
Like-named read-outs stand apart in the source and are kept apart here.

Tests used:
Format in all cases: cell-based
human TLR7 = molecular target: T1, human TLR7 (Homo sapiens, UniProt Q9NYK1); assay: TLR7 inhibition reporter assay (HEK-Blue cells, secreted embryonic alkaline phosphatase reporter); settings: HEK-Blue cells overexpressing human TLR7, stimulated with gardiquimod 7.5 μM; read-out: TLR 7 IC50
T1 construct: host or cells: HEK-Blue cells (HEK293-derived reporter line)
T1 sequence (Q9NYK1 27-1049): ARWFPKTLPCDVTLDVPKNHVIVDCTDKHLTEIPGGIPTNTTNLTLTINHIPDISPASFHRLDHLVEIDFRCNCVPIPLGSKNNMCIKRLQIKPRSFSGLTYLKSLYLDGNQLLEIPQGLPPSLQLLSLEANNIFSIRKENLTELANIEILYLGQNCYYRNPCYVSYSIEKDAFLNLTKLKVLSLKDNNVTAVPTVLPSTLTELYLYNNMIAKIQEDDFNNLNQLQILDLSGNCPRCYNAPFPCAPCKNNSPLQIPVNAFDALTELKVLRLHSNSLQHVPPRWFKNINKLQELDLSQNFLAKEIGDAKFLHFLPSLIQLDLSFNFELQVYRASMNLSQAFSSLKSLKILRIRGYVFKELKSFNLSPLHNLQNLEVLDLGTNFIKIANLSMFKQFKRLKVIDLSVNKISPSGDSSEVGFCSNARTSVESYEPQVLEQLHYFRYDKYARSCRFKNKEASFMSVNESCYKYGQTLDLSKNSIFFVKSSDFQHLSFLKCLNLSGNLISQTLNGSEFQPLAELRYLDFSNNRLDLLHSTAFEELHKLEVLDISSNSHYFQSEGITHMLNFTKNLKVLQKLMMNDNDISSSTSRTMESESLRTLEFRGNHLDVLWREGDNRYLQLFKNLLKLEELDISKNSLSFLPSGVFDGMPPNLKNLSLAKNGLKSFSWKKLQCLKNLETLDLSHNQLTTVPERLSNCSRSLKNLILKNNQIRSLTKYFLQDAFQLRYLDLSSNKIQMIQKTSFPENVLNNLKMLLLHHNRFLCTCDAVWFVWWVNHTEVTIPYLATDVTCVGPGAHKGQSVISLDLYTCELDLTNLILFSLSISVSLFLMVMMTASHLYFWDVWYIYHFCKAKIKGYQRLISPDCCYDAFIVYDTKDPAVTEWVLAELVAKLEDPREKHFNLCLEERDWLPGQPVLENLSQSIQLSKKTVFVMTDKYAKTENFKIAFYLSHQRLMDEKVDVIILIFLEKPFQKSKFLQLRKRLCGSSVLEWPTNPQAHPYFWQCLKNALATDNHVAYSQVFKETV
Outline: (§1)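 HEK-Blue cells expressing human TLR7, TLR8 or TLR9 with an NF-κB/AP-1-driven SEAP reporter were pretreated with compound (0.05 nM–50 μM final) for 30 min at room temperature. Agonists were gardiquimod 7.5 μM for TLR7, R848 15.9 μM for TLR8 and ODN2006 5 nM for TLR9. SEAP was read after 22 h at 37 °C, and inhibition was calculated relative to agonist-plus-DMSO and known-inhibitor controls.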

human TLR8 = molecular target: T2, human TLR8 (Homo sapiens, UniProt Q9NR97); assay: TLR8 inhibition reporter assay (HEK-Blue cells, secreted embryonic alkaline phosphatase reporter); settings: HEK-Blue cells overexpressing human TLR8, stimulated with R848 15.9 μM; read-out: TLR 8 IC50
T2 construct: host or cells: HEK-Blue cells (HEK293-derived reporter line)
T2 sequence (Q9NR97 27-1041): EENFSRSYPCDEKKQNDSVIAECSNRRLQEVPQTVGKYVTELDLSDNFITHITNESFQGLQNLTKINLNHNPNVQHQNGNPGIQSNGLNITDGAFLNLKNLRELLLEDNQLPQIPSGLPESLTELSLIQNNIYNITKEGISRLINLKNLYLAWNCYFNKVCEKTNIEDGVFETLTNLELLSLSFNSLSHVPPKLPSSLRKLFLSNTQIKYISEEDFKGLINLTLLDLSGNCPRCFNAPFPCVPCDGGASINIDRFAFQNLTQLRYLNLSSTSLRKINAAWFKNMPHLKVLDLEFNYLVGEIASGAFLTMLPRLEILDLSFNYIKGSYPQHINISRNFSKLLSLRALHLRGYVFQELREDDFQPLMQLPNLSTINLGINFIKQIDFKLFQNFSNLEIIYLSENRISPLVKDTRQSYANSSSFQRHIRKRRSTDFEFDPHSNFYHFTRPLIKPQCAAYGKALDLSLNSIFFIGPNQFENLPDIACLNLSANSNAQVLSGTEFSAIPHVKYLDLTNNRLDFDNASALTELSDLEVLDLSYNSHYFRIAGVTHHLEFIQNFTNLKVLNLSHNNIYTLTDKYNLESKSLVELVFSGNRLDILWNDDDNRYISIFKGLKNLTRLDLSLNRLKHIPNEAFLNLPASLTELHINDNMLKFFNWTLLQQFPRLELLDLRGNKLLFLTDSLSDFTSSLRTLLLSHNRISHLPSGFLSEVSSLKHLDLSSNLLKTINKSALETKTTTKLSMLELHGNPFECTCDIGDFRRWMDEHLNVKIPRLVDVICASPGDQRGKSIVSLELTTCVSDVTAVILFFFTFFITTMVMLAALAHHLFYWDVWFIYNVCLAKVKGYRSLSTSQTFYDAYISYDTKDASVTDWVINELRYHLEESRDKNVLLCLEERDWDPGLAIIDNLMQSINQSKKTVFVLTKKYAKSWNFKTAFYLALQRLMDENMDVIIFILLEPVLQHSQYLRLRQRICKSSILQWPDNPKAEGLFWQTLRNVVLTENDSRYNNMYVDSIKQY
Outline: as §1

human TLR9 = molecular target: T3, human TLR9 (Homo sapiens, UniProt Q9NR96); assay: TLR9 inhibition reporter assay (HEK-Blue cells, secreted embryonic alkaline phosphatase reporter)
T3 construct: host or cells: HEK-Blue cells (HEK293-derived reporter line)
T3 sequence (Q9NR96 26-1032): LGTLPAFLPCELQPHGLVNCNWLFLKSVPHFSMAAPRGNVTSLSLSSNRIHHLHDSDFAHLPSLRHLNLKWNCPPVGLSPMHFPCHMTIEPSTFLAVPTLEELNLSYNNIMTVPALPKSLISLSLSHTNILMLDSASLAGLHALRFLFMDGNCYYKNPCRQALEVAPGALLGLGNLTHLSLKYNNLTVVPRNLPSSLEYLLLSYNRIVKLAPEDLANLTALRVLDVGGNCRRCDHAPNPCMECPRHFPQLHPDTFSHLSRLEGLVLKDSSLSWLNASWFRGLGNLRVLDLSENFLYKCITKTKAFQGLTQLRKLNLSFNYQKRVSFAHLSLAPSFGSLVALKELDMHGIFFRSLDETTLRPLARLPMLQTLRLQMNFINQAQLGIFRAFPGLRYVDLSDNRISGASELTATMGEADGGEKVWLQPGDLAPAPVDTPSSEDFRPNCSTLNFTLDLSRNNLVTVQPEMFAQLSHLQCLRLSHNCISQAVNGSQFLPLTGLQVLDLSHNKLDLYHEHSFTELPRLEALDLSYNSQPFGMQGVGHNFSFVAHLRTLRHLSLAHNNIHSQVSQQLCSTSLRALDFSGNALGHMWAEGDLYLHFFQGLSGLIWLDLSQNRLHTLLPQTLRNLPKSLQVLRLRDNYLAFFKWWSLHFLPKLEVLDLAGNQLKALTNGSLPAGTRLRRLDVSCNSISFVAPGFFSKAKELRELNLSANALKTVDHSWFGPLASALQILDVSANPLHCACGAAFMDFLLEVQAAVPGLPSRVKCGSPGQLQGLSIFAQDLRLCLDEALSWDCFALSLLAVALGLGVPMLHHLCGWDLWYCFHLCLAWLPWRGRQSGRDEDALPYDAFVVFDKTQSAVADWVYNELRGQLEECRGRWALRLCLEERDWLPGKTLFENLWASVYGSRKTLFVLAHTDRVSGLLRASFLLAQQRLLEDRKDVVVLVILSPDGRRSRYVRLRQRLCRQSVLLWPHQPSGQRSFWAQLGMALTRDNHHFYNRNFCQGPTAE
Outline: as §1

[1] = HEK-Blue cells overexpressing human TLR9, stimulated with ODN2006 5 nM, read-out: TLR 9 IC50
[2] = HEK-Blue human TLR9 reporter cells

SMILES | IC50 (human TLR7) [µM] | IC50 (human TLR8) [µM] | IC50 (human TLR9; [1]) [µM] | IC50 (human TLR9; [2]) [µM]
Cn1c(-c2ccc(S(C)(=O)=O)cc2)nc2c(F)cc(C3CCN(C4CCCN(C5CCOCC5)CC4)CC3)cc21 (stereo not shown) [Example 300, 4-fluoro-1-methyl-2-(4-(methylsulfonyl)phenyl)-6-(1-(1-(tetrahydro-2H-pyran-4-yl)azepan-4-yl)piperidin-4-yl)-1H-benzo[d]imidazole] | 2.9 | > 50 | 0.02 | 0.02
Cn1c(-c2ccc(S(C)(=O)=O)cc2)nc2c(F)cc(C3CCN(C4CCCN(C5CCOCC5)CC4)CC3)cc21 (stereo not shown) [Example 301, 4-fluoro-1-methyl-2-(4-(methylsulfonyl)phenyl)-6-(1-(1-(tetrahydro-2H-pyran-4-yl)azepan-4-yl)piperidin-4-yl)-1H-benzo[d]imidazole] | 3.1 | > 50 | 0.048 | 0.048
Cc1cc(C2CCN(C3CCCN(C4COC4)CC3)CC2)cc2c1nc(-c1ccc(S(C)(=O)=O)cc1)n2C (stereo not shown) [Example 304, 1,4-dimethyl-2-(4-(methylsulfonyl)phenyl)-6-(1-(1-(oxetan-3-yl)azepan-4-yl)piperidin-4-yl)-1H-benzo[d]imidazole] | 12.3 | > 50 | 0.18 | 0.18
Cc1cc(C2CCN(C3CCCN(C4COC4)CC3)CC2)cc2c1nc(-c1ccc(S(C)(=O)=O)cc1)n2C (stereo not shown) [Example 305, 1,4-dimethyl-2-(4-(methylsulfonyl)phenyl)-6-(1-(1-(oxetan-3-yl)azepan-4-yl)piperidin-4-yl)-1H-benzo[d]imidazole] | 8.6 | > 50 | 0.09 | 0.09
CC(C)CN1CCCC(N2CCC(c3ccc4nc(-c5ccc(S(C)(=O)=O)cc5)n(C)c4c3F)CC2)CC1 (stereo not shown) [Example 310, 7-fluoro-6-(1-(1-isobutylazepan-4-yl)piperidin-4-yl)-1-methyl-2-(4-(methylsulfonyl)phenyl)-1H-benzo[d]imidazole] | > 50 | > 50 | 0.046 | 0.047
CC(C)CN1CCCC(N2CCC(c3ccc4nc(-c5ccc(S(C)(=O)=O)cc5)n(C)c4c3F)CC2)CC1 (stereo not shown) [Example 311, 7-fluoro-6-(1-(1-isobutylazepan-4-yl)piperidin-4-yl)-1-methyl-2-(4-(methylsulfonyl)phenyl)-1H-benzo[d]imidazole] | > 50 | > 50 | 0.072 | 0.072
Cn1c(-c2ccc(S(C)(=O)=O)cc2)nc2ccc(C3CCN(C4CCCN(C5CCC5)CC4)CC3)c(F)c21 (stereo not shown) [Example 312, 6-(1-(1-cyclobutylazepan-4-yl)piperidin-4-yl)-7-fluoro-1-methyl-2-(4-(methylsulfonyl)phenyl)-1H-benzo[d]imidazole] | > 50 | > 50 | 0.064 | 0.064
Cn1c(-c2ccc(S(C)(=O)=O)cc2)nc2ccc(C3CCN(C4CCCN(C5CCC5)CC4)CC3)c(F)c21 (stereo not shown) [Example 313, 6-(1-(1-cyclobutylazepan-4-yl)piperidin-4-yl)-7-fluoro-1-methyl-2-(4-(methylsulfonyl)phenyl)-1H-benzo[d]imidazole] | > 50 | > 50 | 0.069 | 0.069
Cn1c(-c2ccc(S(C)(=O)=O)cc2)nc2ccc(C3CCN(C4CCCN(C5COC5)CC4)CC3)c(F)c21 (stereo not shown) [Example 314, 7-fluoro-1-methyl-2-(4-(methylsulfonyl)phenyl)-6-(1-(1-(oxetan-3-yl)azepan-4-yl)piperidin-4-yl)-1H-benzo[d]imidazole] | 6.1 | > 50 | 0.192 | 0.19
Cn1c(-c2ccc(S(C)(=O)=O)cc2)nc2ccc(C3CCN(C4CCCN(C5COC5)CC4)CC3)c(F)c21 (stereo not shown) [Example 315, 7-fluoro-1-methyl-2-(4-(methylsulfonyl)phenyl)-6-(1-(1-(oxetan-3-yl)azepan-4-yl)piperidin-4-yl)-1H-benzo[d]imidazole] | 6.2 | > 50 | 0.147 | 0.15
